What is called inhibition is the drop in the measured response relative to a control, in per cent. Broadly, the inhibition in vivo is the share of the control response that was lost under treatment. A higher inhibition in vivo goes with a strong effect.

Drawing on ChEMBL document CHEMBL1136494, “Potent anti-metastatic activity of dimeric sesquiterpene thioalkaloids from the rhizome of Nuphar pumilum” (2003), this text covers inhibition and inhibition in vivo for 13 compounds.

Common to all, as to format: functional
Holding throughout (details): Mus musculus

Test [1] deals with B16. The test can be described thus: Inhibition of invasion of B16 melanoma cells by 10 uM concentration of the compound.
Test [2] relates to B16. The test can be described thus: Inhibition of invasion of B16 melanoma cells by 100 uM concentration of the compound.
For test [3], the system named is B16. The experiment in a line: Inhibition of invasion of B16 melanoma cells by 1 uM concentration of the compound.
For test [4], the system named is B16. The test can be described thus: Inhibition of invasion of B16 melanoma cells by 0.1 uM concentration of the compound.
In test [5] the test system is B16. The test can be described thus: Inhibition of invasion of B16 melanoma cells by 0.01 uM concentration of the compound.
Test [6] has as its system B16. The experiment in a line: Inhibition of lung metastasis of B16 melanoma cells in mice after 20 mg/kg po administration of the compound.

As to `C[C@@H]1CC[C@@H](c2ccoc2)N2C[C@]3(CC[C@@H]12)CS[C@]1(CC[C@H]2[C@H](C)CC[C@@H](c4ccoc4)N2C1)C3` [NEOTHIOBINUPHARIDINE], the inhibition at 10 µM with B16 [1] came to 33.2%. The inhibition at 100 µM with B16 [2] amounted to 28.3%. The inhibition at 1 µM in the test on B16 [3] came out at 18.9%. In the test with B16 [4], the inhibition at 0.1 µM amounted to 11.9%.

For `C[C@H]1CC[C@H]2[C@H](C)CC[C@@H](c3ccoc3)[N@@+]2([O-])C1`, the inhibition at 10 µM with B16 [1] is 41.4%. Also, in the test with B16 [2], the inhibition at 100 µM came out at 47.2%. In the test with B16 [3], the inhibition at 1 µM worked out at 34.7%. Moreover, the inhibition at 0.1 µM in the test on B16 [4] amounted to 19.6%.

As to `C[C@@H]1CC[C@@H](c2ccoc2)N2C[C@](C)(O)CC[C@@H]12` [NUPHAROLUTINE], the inhibition at 10 µM in the test on B16 [1] is 16.8%. Moreover, the inhibition at 100 µM in the test with B16 [2] was -0.6%. Further, the inhibition at 1 µM in the test with B16 [3] was 1.7%. The inhibition at 0.1 µM with B16 [4] stood at 25.5%.

`C[C@@H]1CC[C@@H](c2ccoc2)N2C[C@]3(CC[C@@H]12)C[S+]([O-])[C@]1(CC[C@H]2[C@H](C)CC[C@@H](c4ccoc4)N2C1)C3` (stereo partly drawn): the inhibition at 10 µM in the test with B16 [1] was determined as 12.8%. In the test on B16 [2], the inhibition at 100 µM is 15.7%. Besides, the inhibition at 1 µM with B16 [3] came out at 18.5%. For the same compound, in the test on B16 [4], the inhibition at 0.1 µM amounted to 10.6%.

For `C[C@H]1CC[C@H]2[C@H](C)CC[C@@H](c3ccoc3)N2C1`, the inhibition at 10 µM in the test on B16 [1] came to 28.5%. Besides, the inhibition at 100 µM with B16 [2] amounted to 19.1%. Moreover, in the test with B16 [3], the inhibition at 1 µM is 14%. In the test on B16 [4], the inhibition at 0.1 µM is -5.1%.

With `C[C@@H]1CC[C@@H](c2ccoc2)N2C[C@@]3(CC[C@@H]12)CS[C@@]1(CC[C@H]2[C@H](C)CC[C@@H](c4ccoc4)N2[C@@H]1O)C3`, in the test on B16 [1], the inhibition at 10 µM came out at 84.8%. Moreover, the inhibition at 0.01 µM with B16 [5] stood at 50.9%. Moreover, in the test on B16 [2], the inhibition at 100 µM is 86.8%. The same compound yielded an inhibition in vivo at 20 mg/kg with B16 [6] of 94%. Further, in the test on B16 [3], the inhibition at 1 µM is 66.5%. Moreover, in the test with B16 [4], the inhibition at 0.1 µM is 57.5%.

In the case of `C[C@@H]1CC[C@@H](c2ccoc2)N2C[C@@]3(CC[C@@H]12)CS[C@]1(CC[C@H]2[C@H](C)CC[C@@H](c4ccoc4)N2[C@@H]1O)C3` [6-HYDROXYTHIONUPHLUTINE B], the inhibition at 10 µM in the test with B16 [1] came to 61.4%. In addition, the inhibition at 0.01 µM in the test on B16 [5] is 5.9%. Besides, the inhibition at 100 µM with B16 [2] was 47.1%. In the test on B16 [3], the inhibition at 1 µM came out at 62.7%. In addition, the inhibition at 0.1 µM with B16 [4] is 31.6%.

On to `C[C@@H]1CC[C@@H](c2ccoc2)N2C[C@@]3(CC[C@@H]12)C[S+]([O-])[C@]1(CC[C@H]2[C@H](C)CC[C@@H](c4ccoc4)N2C1)C3` (stereo partly drawn), for which, in the test with B16 [1], the inhibition at 10 µM came to 9.2%. Further, the inhibition at 100 µM with B16 [2] is 0%. Also, the inhibition at 1 µM in the test on B16 [3] turned out to be 10.2%. In the test on B16 [4], the inhibition at 0.1 µM was -8.1%.

With `C[C@@H]1CC[C@@H](c2ccoc2)N2[C@H]1CC[C@@]1(CS[C@@]3(CC[C@H]4[C@H](C)CC[C@@H](c5ccoc5)N4[C@@H]3O)C1)[C@H]2O`, in the test with B16 [1], the inhibition at 10 µM came out at 83.2%. Moreover, the inhibition at 0.01 µM in the test on B16 [5] came out at 40.3%. Moreover, the inhibition at 100 µM with B16 [2] was determined as 86.6%. The inhibition at 1 µM in the test on B16 [3] came out at 68.5%. For the same compound, the inhibition at 0.1 µM in the test on B16 [4] is 43.1%.

With `COc1cc(C=CC(=O)CC(=O)/C=C/c2ccc(O)c(OC)c2)ccc1O` [CURCUMIN], in the test on B16 [6], testing at 20 mg/kg gave an inhibition in vivo of 87%.

For `C[C@@H]1CC[C@H]2[C@H](C)CC[C@@H](c3ccoc3)N2C1` [(-)-7-EPI-DEOXYNUPHARIDINE], the inhibition at 10 µM in the test on B16 [1] is 20.9%. The inhibition at 100 µM with B16 [2] came to 23%. The inhibition at 1 µM in the test on B16 [3] is 25.3%. Further, in the test on B16 [4], the inhibition at 0.1 µM was found to be 5.1%.

As to `C[C@@H]1CC[C@@H](c2ccoc2)N2C[C@@]3(CC[C@@H]12)C[S+]([O-])[C@@]1(CC[C@H]2[C@H](C)CC[C@@H](c4ccoc4)N2C1)C3` (stereo partly drawn), in the test with B16 [1], the inhibition at 10 µM came to 42.2%. Moreover, the inhibition at 100 µM in the test with B16 [2] amounted to 32.5%. The inhibition at 1 µM with B16 [3] is 38.3%. The inhibition at 0.1 µM in the test on B16 [4] was determined as 16.9%.

With `C[C@@H]1CC[C@@H](c2ccoc2)N2C[C@@]3(CC[C@@H]12)CS[C@@]1(CC[C@H]2[C@H](C)CC[C@@H](c4ccoc4)N2C1)C3` [THIOBINUPHARIDINE], the inhibition at 10 µM with B16 [1] was 15.6%. Moreover, in the test on B16 [2], the inhibition at 100 µM turned out to be 22.7%. Also, in the test on B16 [3], the inhibition at 1 µM is 9.7%. In addition, the inhibition at 0.1 µM with B16 [4] was 5.2%.
